Test results published in ChEMBL document CHEMBL1201862, “PubChem BioAssay data set” (2004).
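Values below derive from 48-hour exposures of cells grown in 96-well plates, with endpoints linearly interpolated between the two concentrations bracketing the appropriate inhibition level. Abbreviation: GI50, concentration required for 50% inhibition of growth.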 Activity calls are given as the source filed them. Rule as the data show it: active = GI50 up to about 1.1 µM and inactive = higher.

Experiments:
Test in all cases: growth of human tumour cells (NCI), 48 h
RPMI-8226 = system: RPMI-8226
NCI-H460 = system: NCI-H460
UO-31 = system: UO-31
LOX IMVI = system: LOX IMVI
CCRF-CEM = system: CCRF-CEM
EKVX = system: EKVX
Hs-578T = system: Hs-578T
HCT-116 = system: HCT-116
HL-60 = system: HL-60
KM12 = system: KM12
IGROV-1 = system: IGROV-1
OVCAR-3 = system: OVCAR-3
U-251 = system: U-251
HCC 2998 = system: HCC 2998
Malme-3M = system: Malme-3M
HOP-92 = system: HOP-92
SF-268 = system: SF-268
SN12C = system: SN12C
MOLT-4 = system: MOLT-4
A498 = system: A498

Measured: GI50

COc1ccc(CCN2C(=O)C=CC2=O)cc1OC
inactive: RPMI-8226 1.77 µM | NCI-H460 21.5 µM | UO-31 1.63 µM | LOX IMVI 18.5 µM | CCRF-CEM 1.85 µM | EKVX 19.2 µM | Hs-578T 32.4 µM | HCT-116 3.53 µM | HL-60 8.39 µM | KM12 19.6 µM | IGROV-1 18 µM | OVCAR-3 18 µM | U-251 19.5 µM | HCC 2998 17.4 µM | Malme-3M 13.8 µM | HOP-92 15.4 µM | SF-268 22.1 µM | SN12C 17.5 µM | MOLT-4 2.43 µM | A498 16.7 µM
